Earlier results on one compound are cited in US20070071819A1, “MULTIPLE UNIT MODIFIED RELEASE COMPOSITIONS OF CARBAMAZEPINE AND PROCESS FOR THEIR PREPARATION” (priority 2005, published 2007).

For this data set the following is noted: below 4 μg/ml ineffective; greater than 12 μg/ml increased chances of side-effects.

For `NC(=O)N1c2ccccc2C=Cc2ccccc21` [carbamazepine, 5H-dibenz-[b,f]azepine-5-carboxamide], the “therapeutic blood serum concentration range” value is 4 to 12 µg/mL.
